How the values were obtained:
[1] = Non-nucleoside inhibition of NS5B polymerase in HCV genotype 1a by Taqman probe based RT-PCR analysis
[2] = Non-nucleoside inhibition of NS5B polymerase in HCV genotype 3a by Taqman probe based RT-PCR analysis
[3] = Non-nucleoside inhibition of NS5B polymerase in HCV genotype 2b by Taqman probe based RT-PCR analysis
[4] = Non-nucleoside inhibition of NS5B polymerase in HCV genotype 2a by Taqman probe based RT-PCR analysis
[5] = Non-nucleoside inhibition of NS5B polymerase in HCV genotype 4a by Taqman probe based RT-PCR analysis
[6] = Non-nucleoside inhibition of NS5B polymerase C316Y mutant in HCV genotype 1a by Taqman probe based RT-PCR analysis
[7] = Non-nucleoside inhibition of NS5B polymerase in HCV genotype 1b by Taqman probe based RT-PCR analysis
[8] = Non-nucleoside inhibition of NS5B polymerase S365A mutant in HCV genotype 1a by Taqman probe based RT-PCR analysis

Compound	EC50 [1]	EC50 [2]	EC50 [3]	EC50 [4]	EC50 [5]	EC50 [6]	EC50 [7]	EC50 [8]
CNC(=O)c1c(-c2ccc(F)cc2)oc2cc(N(C)S(C)(=O)=O)c(-c3ccc4nnn(C(C)c5ccc(F)cc5)c(=O)c4c3)cc12 (configuration not stated)	2.8 nM	0.8 nM	5.8 nM	9.3 nM	1.1 nM	15 nM	2.9 nM	277 nM
CNC(=O)c1c(-c2ccc(F)cc2)oc2cc(N(C)S(C)(=O)=O)c(-c3ccc4nnn(C(CO)c5ccc(F)cc5)c(=O)c4c3)cc12 (configuration not stated)	7.3 nM	0.9 nM	6 nM	20 nM	4.5 nM	523 nM	5.6 nM	1130 nM
CNC(=O)c1c(-c2ccc(F)cc2)oc2cc(N(C)S(C)(=O)=O)c(-c3ccc4nc(C)n(Cc5ccc(F)cn5)c(=O)c4c3)cc12	1.3 nM	1.7 nM	4.2 nM	11 nM	1.6 nM	36 nM	2.6 nM	228 nM
CNC(=O)c1c(-c2ccc(F)cc2)oc2cc(N(C)S(C)(=O)=O)c(-c3ccc4nc(C)n(Cc5ccc(F)cc5OC)c(=O)c4c3)cc12	1 nM	1.1 nM	5 nM	13 nM	2.2 nM	44 nM	1.5 nM	177 nM
CNC(=O)c1c(-c2ccc(F)cc2)oc2cc(N(C)S(C)(=O)=O)c(-c3ccc4nc(C)n(Cc5ccc(F)cc5F)c(=O)c4c3)cc12	0.5 nM	0.9 nM	5.4 nM	8.3 nM	0.7 nM	5.4 nM	0.8 nM	11 nM
CNC(=O)c1c(-c2ccc(F)cc2)oc2cc(N(C)S(C)(=O)=O)c(-c3ccc4nc(C)n([C@H](COC)c5ccc(F)cc5)c(=O)c4c3)cc12	0.6 nM	1.6 nM	11 nM	19 nM	2.4 nM	21 nM	1.1 nM	37 nM
CNC(=O)c1c(-c2ccc(F)cc2)oc2cc(N(C)S(C)(=O)=O)c(-c3ccc4nc(C)n([C@@H](COC)c5ccc(F)cc5)c(=O)c4c3)cc12	0.5 nM	1.1 nM	4.1 nM	7.5 nM	0.6 nM	30 nM	1.1 nM	17 nM
CNC(=O)c1c(-c2ccc(F)cc2)oc2cc(N(C)S(C)(=O)=O)c(-c3ccc4c(n3)C(=O)N(c3ccc(F)cc3)CO4)cc12 [US9364482, 2]	19 nM	1.5 nM	19 nM	151 nM	8.4 nM	452 nM	3.8 nM	1360 nM
CNC(=O)c1c(-c2ccc(F)cc2)oc2cc(N(C)S(C)(=O)=O)c(-c3ccc4c(n3)C(=O)N(Cc3ccc(F)cc3)CO4)cc12 [US9364482, 6]	1.6 nM	1.8 nM	19 nM	4.6 nM	0.3 nM	3.5 nM	1.3 nM	0.7 nM
CNC(=O)c1c(-c2ccc(F)cc2)oc2cc(N(C)S(C)(=O)=O)c(-c3ccc4nnn([C@H](COC)c5ccc(F)cc5)c(=O)c4c3)cc12 [US9364482, 39]	1.2 nM	1 nM	3.9 nM	12 nM	0.7 nM	18 nM	2.6 nM	68 nM
CNC(=O)c1c(-c2ccc(F)cc2)oc2cc(N(C)S(C)(=O)=O)c(-c3ccc4nnn([C@@H](COC)c5ccc(F)cc5)c(=O)c4c3)cc12 [US9364482, 41]	4.9 nM	1.8 nM	11 nM	16 nM	6 nM	292 nM	5.6 nM	474 nM
CNC(=O)c1c(-c2ccc(F)cc2)oc2cc(N(C)S(C)(=O)=O)c(-c3ccc4nnn(Cc5ccccc5)c(=O)c4c3)cc12 [US9364482, 42]	2.3 nM	1 nM	6.2 nM	8.8 nM	3 nM	68 nM	3.5 nM	335 nM
CNC(=O)c1c(-c2ccc(F)cc2)oc2cc(N(C)S(C)(=O)=O)c(-c3ccc4nnn(Cc5ccc(F)cc5)c(=O)c4c3)cc12 [US9364482, 44]	1.7 nM	0.8 nM	4 nM	13 nM	1.4 nM	12 nM	3.9 nM	76 nM
CNC(=O)c1c(-c2ccc(F)cc2)oc2cc(N(C)S(C)(=O)=O)c(-c3ccc4nnn(Cc5ccc(F)cn5)c(=O)c4c3)cc12 [US9364482, 48]	3.3 nM	1.1 nM	5.6 nM	11 nM	2.1 nM	29 nM	2.7 nM	446 nM
CNC(=O)c1c(-c2ccc(F)cc2)oc2cc(N(C)S(C)(=O)=O)c(-c3ccc4ncn(Cc5ccccc5)c(=O)c4c3)cc12 [US9364482, 49]	3.2 nM	1.2 nM	9.4 nM	18 nM	3.5 nM	70 nM	3.5 nM	190 nM
CNC(=O)c1c(-c2ccc(F)cc2)oc2cc(N(C)S(C)(=O)=O)c(-c3ccc4nc(COC)n(Cc5ccc(F)cc5)c(=O)c4c3)cc12 [US9364482, 53]	2.1 nM	0.8 nM	3.7 nM	8.2 nM	0.9 nM	4.1 nM	2.4 nM	19 nM
CNC(=O)c1c(-c2ccc(F)cc2)oc2cc(N(C)S(C)(=O)=O)c(-c3ccc4nc(CNC(C)=O)n(Cc5ccc(F)cc5)c(=O)c4c3)cc12 [US9364482, 54]	1.1 nM	1.4 nM	5.9 nM	58 nM	6.6 nM	32 nM	2.8 nM	8.3 nM
CNC(=O)c1c(-c2ccc(F)cc2)oc2cc(N(C)S(C)(=O)=O)c(-c3ccc4nc(C)n(Cc5ccc(F)cc5)c(=O)c4c3)cc12 [US9364482, 55]	0.3 nM	0.6 nM	1.5 nM	4.1 nM	0.6 nM	2.9 nM	1.1 nM	7.1 nM
CNC(=O)c1c(-c2ccc(F)cc2)oc2cc(N(C)S(C)(=O)=O)c(-c3ccc4nc(C)n(Cc5ccc(F)cc5)c(=O)c4n3)cc12 [US9364482, 68]	1.1 nM	1 nM	2.7 nM	10 nM	2.9 nM	36 nM	1.6 nM	137 nM
CNC(=O)c1c(-c2ccc(F)cc2)oc2cc(N(C)S(C)(=O)=O)c(-c3cc4c(=O)n(Cc5ccc(F)cc5)nnc4cc3F)cc12 [US9364482, 70]	0.7 nM	1.2 nM	2.9 nM	6.1 nM	1.2 nM	5.6 nM	2.7 nM	47 nM
CNC(=O)c1c(-c2ccc(F)cc2)oc2cc(N(C)S(C)(=O)=O)c(-c3cc(OC)c4nnn(Cc5ccc(F)cc5)c(=O)c4c3)cc12 [US9364482, 71]	0.8 nM	0.7 nM	3.1 nM	3.9 nM	0.4 nM	4.6 nM	1.6 nM	12 nM
CNC(=O)c1c(-c2ccc(F)cc2)oc2cc(N(C)S(C)(=O)=O)c(-c3cc4c(=O)n(Cc5ccc(F)cc5)nnc4cc3C)cc12 [US9364482, 72]	2.3 nM	1.1 nM	4.7 nM	6.6 nM	1 nM	6.2 nM	4.4 nM	16 nM
CNC(=O)c1c(-c2ccc(F)cc2)oc2cc(N(C)S(C)(=O)=O)c(-c3cc4c(=O)n(Cc5ccc(F)cc5)nnc4cc3Cl)cc12 [US9364482, 73]	3 nM	1.5 nM	8.8 nM	15 nM	1 nM	12 nM	5.5 nM	42 nM
CNC(=O)c1c(-c2ccc(F)cc2)oc2cc(N(C)S(C)(=O)=O)c(-c3cc(C)c4nnn(Cc5ccc(F)cc5)c(=O)c4c3)cc12 [US9364482, 74]	1.8 nM	1.4 nM	6.8 nM	6.1 nM	0.8 nM	29 nM	3.3 nM	120 nM
